Reference: ChEMBL document CHEMBL3627608, “Crystal structures of human RIP2 kinase catalytic domain complexed with ATP-competitive inhibitors: Foundations for understanding inhibitor selectivity” (Bioorg Med Chem, 2015)

What was measured:
[1] = target: Tyrosine-protein kinase Fyn (Homo sapiens) (UniProt P06241); assay: Inhibition of FYN (unknown origin) at 10 uM after 120 mins P33 radiolabeled kinase activity assay
[2] = target: T1, Serine/threonine-protein kinase 4 (Homo sapiens) (UniProt Q13043); assay: Inhibition of MST1 (unknown origin) at 10 uM after 120 mins P33 radiolabeled kinase activity assay
T1 sequence (whole entry): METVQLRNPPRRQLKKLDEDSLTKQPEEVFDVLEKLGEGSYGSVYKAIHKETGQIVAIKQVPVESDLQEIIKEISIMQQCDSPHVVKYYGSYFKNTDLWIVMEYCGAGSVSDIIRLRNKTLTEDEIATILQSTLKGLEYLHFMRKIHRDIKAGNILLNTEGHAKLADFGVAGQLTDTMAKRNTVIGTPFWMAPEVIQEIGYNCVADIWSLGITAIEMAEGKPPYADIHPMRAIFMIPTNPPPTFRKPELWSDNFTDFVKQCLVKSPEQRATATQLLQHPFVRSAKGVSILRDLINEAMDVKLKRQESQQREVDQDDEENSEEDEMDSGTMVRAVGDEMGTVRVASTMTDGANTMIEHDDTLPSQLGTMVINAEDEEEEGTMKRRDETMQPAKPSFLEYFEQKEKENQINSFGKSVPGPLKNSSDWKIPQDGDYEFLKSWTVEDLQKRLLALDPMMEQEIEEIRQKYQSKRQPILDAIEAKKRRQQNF

[3] = target: T2, 3-phosphoinositide-dependent protein kinase 1 (Homo sapiens) (UniProt O15530); assay: Inhibition of PDK1 (unknown origin) at 10 uM after 120 mins P33 radiolabeled kinase activity assay
T2 sequence (whole entry): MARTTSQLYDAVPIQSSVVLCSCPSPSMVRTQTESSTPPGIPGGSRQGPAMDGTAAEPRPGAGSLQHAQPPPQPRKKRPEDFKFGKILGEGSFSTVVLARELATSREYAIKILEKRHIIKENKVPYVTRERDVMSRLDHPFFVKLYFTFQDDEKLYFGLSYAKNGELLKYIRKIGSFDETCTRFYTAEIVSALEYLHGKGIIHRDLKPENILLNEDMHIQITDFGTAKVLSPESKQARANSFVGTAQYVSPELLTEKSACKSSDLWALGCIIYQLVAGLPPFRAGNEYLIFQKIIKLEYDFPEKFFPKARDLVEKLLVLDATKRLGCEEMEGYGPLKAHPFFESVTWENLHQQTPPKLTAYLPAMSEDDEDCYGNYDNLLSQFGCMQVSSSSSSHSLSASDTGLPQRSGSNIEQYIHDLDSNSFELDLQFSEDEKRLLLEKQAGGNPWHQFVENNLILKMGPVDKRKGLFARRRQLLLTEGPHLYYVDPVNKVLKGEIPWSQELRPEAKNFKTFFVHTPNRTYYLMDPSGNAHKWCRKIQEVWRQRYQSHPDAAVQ

[4] = target: T3, Inhibitor of nuclear factor kappa-B kinase subunit epsilon (Homo sapiens) (UniProt Q14164); assay: Inhibition of IKKepsilon (unknown origin) at 10 uM after 120 mins P33 radiolabeled kinase activity assay
T3 sequence (whole entry): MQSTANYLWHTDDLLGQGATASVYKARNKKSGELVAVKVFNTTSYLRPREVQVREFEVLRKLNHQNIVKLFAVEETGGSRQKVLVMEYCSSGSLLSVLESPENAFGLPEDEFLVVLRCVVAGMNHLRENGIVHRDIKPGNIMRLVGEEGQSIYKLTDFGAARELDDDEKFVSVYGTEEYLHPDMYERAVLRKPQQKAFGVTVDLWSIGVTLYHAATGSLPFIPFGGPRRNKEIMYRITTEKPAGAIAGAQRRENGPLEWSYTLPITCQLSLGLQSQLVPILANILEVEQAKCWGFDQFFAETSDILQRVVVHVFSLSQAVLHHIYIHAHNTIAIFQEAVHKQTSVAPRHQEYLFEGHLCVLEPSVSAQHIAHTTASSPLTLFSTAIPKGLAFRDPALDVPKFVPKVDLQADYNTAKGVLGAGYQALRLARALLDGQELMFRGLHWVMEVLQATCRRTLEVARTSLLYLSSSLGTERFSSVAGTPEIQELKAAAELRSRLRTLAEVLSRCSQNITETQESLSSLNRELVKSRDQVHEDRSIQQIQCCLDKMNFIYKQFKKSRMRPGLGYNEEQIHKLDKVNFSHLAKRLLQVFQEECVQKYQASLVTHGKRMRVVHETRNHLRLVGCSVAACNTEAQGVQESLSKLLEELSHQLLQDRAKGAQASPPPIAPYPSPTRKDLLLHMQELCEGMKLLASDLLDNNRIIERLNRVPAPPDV

[5] = target: T4, Serine/threonine-protein kinase Nek9 (Homo sapiens) (UniProt Q8TD19); assay: Inhibition of NEK9 (unknown origin) at 10 uM after 120 mins P33 radiolabeled kinase activity assay
T4 sequence (whole entry): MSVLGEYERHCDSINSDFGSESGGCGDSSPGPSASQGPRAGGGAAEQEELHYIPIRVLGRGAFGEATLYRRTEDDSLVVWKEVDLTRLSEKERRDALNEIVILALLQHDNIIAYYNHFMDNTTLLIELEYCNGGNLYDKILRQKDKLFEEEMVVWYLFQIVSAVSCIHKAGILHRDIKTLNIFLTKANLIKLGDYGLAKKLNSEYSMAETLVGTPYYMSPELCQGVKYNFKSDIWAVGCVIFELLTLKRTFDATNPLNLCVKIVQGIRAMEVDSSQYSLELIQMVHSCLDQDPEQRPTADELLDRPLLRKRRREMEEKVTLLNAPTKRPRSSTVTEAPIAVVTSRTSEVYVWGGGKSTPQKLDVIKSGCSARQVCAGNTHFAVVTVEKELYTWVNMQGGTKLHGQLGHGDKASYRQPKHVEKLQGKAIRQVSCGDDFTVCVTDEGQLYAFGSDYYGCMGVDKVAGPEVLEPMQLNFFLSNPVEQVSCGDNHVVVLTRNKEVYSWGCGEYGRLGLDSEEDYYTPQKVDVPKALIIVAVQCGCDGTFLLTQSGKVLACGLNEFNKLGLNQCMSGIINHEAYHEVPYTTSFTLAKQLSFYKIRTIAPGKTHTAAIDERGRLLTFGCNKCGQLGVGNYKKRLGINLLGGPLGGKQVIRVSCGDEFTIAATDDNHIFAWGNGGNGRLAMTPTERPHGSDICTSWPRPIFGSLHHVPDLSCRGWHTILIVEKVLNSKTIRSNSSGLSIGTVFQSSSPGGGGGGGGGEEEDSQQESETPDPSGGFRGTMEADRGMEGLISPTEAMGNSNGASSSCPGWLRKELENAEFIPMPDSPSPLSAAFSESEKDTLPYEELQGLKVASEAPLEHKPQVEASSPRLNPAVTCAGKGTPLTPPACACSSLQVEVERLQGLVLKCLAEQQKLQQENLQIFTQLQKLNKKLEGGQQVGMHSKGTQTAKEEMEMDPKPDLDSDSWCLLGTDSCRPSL

Sequence of Tyrosine-protein kinase Fyn (Homo sapiens) (P06241 2-537 limits assumed): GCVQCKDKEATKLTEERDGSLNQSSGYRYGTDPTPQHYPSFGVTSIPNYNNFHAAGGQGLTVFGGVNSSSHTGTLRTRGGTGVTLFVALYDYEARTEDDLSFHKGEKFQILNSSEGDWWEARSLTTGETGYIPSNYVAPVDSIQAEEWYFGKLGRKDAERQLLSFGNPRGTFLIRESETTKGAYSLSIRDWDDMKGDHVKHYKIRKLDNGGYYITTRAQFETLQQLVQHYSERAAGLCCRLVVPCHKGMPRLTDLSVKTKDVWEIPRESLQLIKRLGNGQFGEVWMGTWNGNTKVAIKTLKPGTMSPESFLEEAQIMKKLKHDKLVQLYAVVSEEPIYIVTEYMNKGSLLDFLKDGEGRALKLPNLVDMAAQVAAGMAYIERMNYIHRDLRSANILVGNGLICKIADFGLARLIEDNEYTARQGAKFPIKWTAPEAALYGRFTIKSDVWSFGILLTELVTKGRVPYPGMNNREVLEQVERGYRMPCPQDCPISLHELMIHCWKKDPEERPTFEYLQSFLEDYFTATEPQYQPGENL

COCCNC(=O)c1ccc2c(c1)nc(-c1cnc(-c3ccc(Cl)cc3)[nH]1)n2CCOC
inhibition [1]: 49.1%
inhibition [2]: 9.73%
inhibition [3]: 4.43%
inhibition [4]: -0.19%
inhibition [5]: -6.23%

CS(=O)(=O)c1cccc(Nc2nccc(-c3sc(N4CCOCC4)nc3-c3cccc(NS(=O)(=O)c4c(F)cccc4F)c3)n2)c1
inhibition [1]: 99.8%
inhibition [2]: 16%
inhibition [3]: 7.26%
inhibition [4]: 67.7%
inhibition [5]: 100%

CC(C)(C)c1cc(NC(=O)Nc2ccc(Oc3ccncc3)cc2)no1
inhibition [1]: 85.8%
inhibition [2]: 11.5%
inhibition [3]: 8.32%
inhibition [4]: 1.8%
inhibition [5]: 20.9%
